This is an account of results in patent US8063048B2, “Acetylenyl-pyrazolo-pyrimidine derivatives” (Hoffmann-La Roche Inc., priority 2005, dated 2011).

Molecules are shown by their SMILES.

For orientation: melting point means the temperature, or range, at which the solid turns liquid. Compound `NS(=O)(=O)c1ccc(C#Cc2ncn3c(C(F)F)cc(-c4ccc(C(F)(F)F)cc4)nc23)cc1` [Example 276, 4-[4-Difluoromethyl-2-(4-trifluoromethyl-phenyl)-imidazo[1,5-a]pyrimidin-8-ylethynyl]-benzenesulfonamide] registered a melting point of 282 °C.

Compound `Nc1ccc(C#Cc2ncn3c(C(F)(F)F)cc(-c4ccc(C(F)(F)F)cc4)nc23)cn1` [Example 284, 5-[4-Trifluoromethyl-2-(4-trifluoromethyl-phenyl)-imidazo[1,5-a]pyrimidin-8-ylethynyl]-pyridin-2-ylamine] came in with a melting point of 225 °C.

Compound `O=S(=O)(NCc1ccncc1)c1ccc(C#Cc2cnn3c(C(F)F)cc(-c4ccc(C(F)(F)F)cc4)nc23)s1` [Example 277, 5-[7-Difluoromethyl-5-(4-trifluoromethyl-phenyl)-pyrazolo[1,5-a]pyrimidin-3-ylethynyl]-thiophene-2-sulfonic acid (pyridin-4-ylmethyl)-amide] showed a melting point of 141 °C.

In turn, `NS(=O)(=O)c1ccc(C#Cc2cnn3c(C(F)F)cc(-c4ccc(C(F)(F)F)cc4)nc23)cc1` [Example 49, 4-[7-Difluoromethyl-5-(4-trifluoromethyl-phenyl)-pyrazolo[1,5-a]pyrimidin-3-ylethynyl]-benzenesulfonamide] returned a melting point of 254 °C.

Consider `Cc1cc(-c2cc(C(F)(F)F)n3ncc(C#Cc4cccc(S(=O)(=O)NC(C)(C)CO)c4)c3n2)ccc1Cl` [Example 102, 3-[5-(4-Chloro-3-methyl-phenyl)-7-trifluoromethyl-pyrazolo[1,5-a]pyrimidin-3-ylethynyl]-N-(2-hydroxy-1,1-dimethyl-ethyl)-benzenesulfonamide], for which the melting point was 204 °C.

Compound `Cc1cc(-c2cc(C(F)F)n3ncc(C#Cc4ccc(S(=O)(=O)NC(C)(C)C)s4)c3n2)ccc1Cl` [Example 171, 5-[5-(4-Chloro-3-methyl-phenyl)-7-difluoromethyl-pyrazolo[1,5-a]pyrimidin-3-ylethynyl]-thiophene-2-sulfonic acid tert-butylamide] returned a melting point of 220 °C.

In turn, `CC(C)(C)NS(=O)(=O)c1ccc(C#Cc2cnn3c(C(F)F)cc(-c4ccc(C(F)(F)F)cc4)nc23)s1` [Example 165, 5-[7-Difluoromethyl-5-(4-trifluoromethyl-phenyl)-pyrazolo[1,5-a]pyrimidin-3-ylethynyl]-thiophene-2-sulfonic acid tert-butylamide] returned a melting point of 187 °C.

For `CN(C)CCNS(=O)(=O)c1ccc(C#Cc2cnn3c(C(F)F)cc(-c4ccc(C(F)(F)F)cc4)nc23)cc1` [Example 141, 4-[7-Difluoromethyl-5-(4-trifluoromethyl-phenyl)-pyrazolo[1,5-a]pyrimidin-3-ylethynyl]-N-(2-dimethylamino-ethyl)-benzenesulfonamide], the melting point lay within 157 to 159 °C.

Regarding `COc1ccc(C#Cc2cnn3ccc(-c4ccc(Cl)cc4)nc23)cc1S(=O)(=O)NC(C)(C)CO` [Example 75, 5-[5-(4-Chloro-phenyl)-pyrazolo[1,5-a]pyrimidin-3-ylethynyl]-N-(2-hydroxy-1,1-dimethyl-ethyl)-2-methoxy-benzenesulfonamide], the melting point lay within 264 to 266 °C.

For the compound `O=S(=O)(NC(CO)CO)c1ccc(C#Cc2cnn3c(C(F)(F)F)cc(-c4cccc(C(F)(F)F)c4)nc23)s1` [Example 271, 5-[7-Trifluoromethyl-5-(3-trifluoromethyl-phenyl)-pyrazolo[1,5-a]pyrimidin-3-ylethynyl]-thiophene-2-sulfonic acid (2-hydroxy-1-hydroxymethyl-ethyl)-amide], the melting point came out at 210 °C.

As to `O=S(=O)(NC(CO)(CO)CO)c1cncc(C#Cc2cnn3c(C(F)(F)F)cc(-c4ccc(C(F)(F)F)cc4)nc23)c1` [Example 22, 5-[7-Trifluoromethyl-5-(4-trifluoromethyl-phenyl)-pyrazolo[1,5-a]pyrimidin-3-ylethynyl]-pyridine-3-sulfonic acid (2-hydroxy-1,1-bis-hydroxymethyl-ethyl)-amide], the melting point was in the range of 230 to 232 °C.

For the compound `CCCc1cc(-c2ccc(Cl)cc2)nc2c(C#Cc3ccc(N)nc3)cnn12` [Example 305, 5-[5-(4-Chloro-phenyl)-7-propyl-pyrazolo[1,5-a]pyrimidin-3-ylethynyl]-pyridin-2-ylamine], the melting point fell in the range of 215 to 217 °C.

Turning to `COCCNS(=O)(=O)c1ccc(C#Cc2cnn3c(C(F)F)cc(-c4ccc(C(F)(F)F)cc4)nc23)cc1` [Example 139, 4-[7-Difluoromethyl-5-(4-trifluoromethyl-phenyl)-pyrazolo[1,5-a]pyrimidin-3-ylethynyl]-N-(2-methoxy-ethyl)-benzenesulfonamide], the melting point was in the range of 184 to 186 °C.

For `NS(=O)(=O)c1ccc(C#Cc2cnn3c(C(F)(F)F)cc(-c4ccc(Cl)cc4)nc23)s1` [Example 97, 5-[5-(4-Chloro-phenyl)-7-trifluoromethyl-pyrazolo[1,5-a]pyrimidin-3-ylethynyl]-thiophene-2-sulfonic acid amide], the melting point was 239 to 240 °C.

`FC(F)(F)c1ccc(-c2cc(C(F)(F)F)n3ncc(C#Cc4ccnc(Cl)n4)c3n2)cc1` [Example 183, 3-(2-Chloro-pyrimidin-4-ylethynyl)-7-trifluoromethyl-5-(4-trifluoromethyl-phenyl)-pyrazolo[1,5-a]pyrimidine] displayed a melting point of 192 to 195 °C.

Consider `NS(=O)(=O)c1cccc(C#Cc2cnn3c(C(F)(F)F)cc(-c4ccc(Cl)c(Cl)c4)nc23)c1` [Example 93, 3-[5-(3,4-Dichloro-phenyl)-7-trifluoromethyl-pyrazolo[1,5-a]pyrimidin-3-ylethynyl]-benzenesulfonamide], for which the melting point was 230 to 231 °C.

`CC(CO)(CO)NS(=O)(=O)c1cncc(C#Cc2cnn3c(C(F)F)cc(-c4ccc(C(F)(F)F)cc4)nc23)c1` [Example 26, 5-[7-Difluoromethyl-5-(4-trifluoromethyl-phenyl)-pyrazolo[1,5-a]pyrimidin-3-ylethynyl]-pyridine-3-sulfonic acid (2-hydroxy-1-hydroxymethyl-1-methyl-ethyl)-amide] registered a melting point of 204 to 206 °C.

`CS(=O)(=O)Nc1ccc(C#Cc2cnn3c(C(F)(F)F)cc(-c4ccc(C(F)(F)F)cc4)nc23)cn1` [Example 216, N-{5-[7-Trifluoromethyl-5-(4-trifluoromethyl-phenyl)-pyrazolo[1,5-a]pyrimidin-3-ylethynyl]-pyridin-2-yl}-methanesulfonamide] registered a melting point of 261 to 263 °C.

For the compound `Cc1cc(-c2ccc(C(F)(F)F)cc2)cn2c(C#Cc3ccc(N)nc3)cnc12` [Example 209, 5-[8-Methyl-6-(4-trifluoromethyl-phenyl)-imidazo[1,2-a]pyridin-3-ylethynyl]-pyridin-2-ylamine], the melting point lay in the range of 239 to 240 °C.

As for `CC(=O)Nc1ncc(C#Cc2cnn3c(C(F)(F)F)cc(-c4ccc(C(F)(F)F)cc4)nc23)s1` [Example 291, N-{5-[7-Trifluoromethyl-5-(4-trifluoromethyl-phenyl)-pyrazolo[1,5-a]pyrimidin-3-ylethynyl]-thiazol-2-yl}-acetamide], the melting point came out at 302 °C.

The compound `NS(=O)(=O)c1cc(C#Cc2cnn3c(C(F)F)cc(-c4ccc(C(F)(F)F)cc4)nc23)c(F)cc1F` [Example 31, 5-[7-Difluoromethyl-5-(4-trifluoromethyl-phenyl)-pyrazolo[1,5-a]pyrimidin-3-ylethynyl]-2,4-difluoro-benzenesulfonamide] showed a melting point of 256 to 258 °C.

On to `Cc1cc(-c2cc(C(F)(F)F)n3ncc(C#Cc4ccc(S(=O)(=O)N5CCN(C)CC5)s4)c3n2)ccc1Cl` [Example 258, 5-(4-Chloro-3-methyl-phenyl)-3-[5-(4-methyl-piperazine-1-sulfonyl)-thiophen-2-ylethynyl]-7-trifluoromethyl-pyrazolo[1,5-a]pyrimidine], for which the melting point stood at 229 °C.

The compound `CC(=O)N(C(C)=O)c1ncc(C#Cc2cnn3c(C(F)(F)F)cc(-c4ccc(C(F)(F)F)cc4)nc23)cn1` [Example 244, N-Acetyl-N-{5-[7-trifluoromethyl-5-(4-trifluoromethyl-phenyl)-pyrazolo[1,5-a]pyrimidin-3-ylethynyl]-pyrimidin-2-yl}-acetamide] returned a melting point of 253 to 254 °C.

In turn, `FC(F)(F)c1ccc(-c2cc(C(F)(F)F)n3ncc(C#Cc4cccnc4C4CC4)c3n2)cc1` [Example 8, 3-(2-Cyclopropyl-pyridin-3-ylethynyl)-7-trifluoromethyl-5-(4-trifluoromethyl-phenyl)-pyrazolo[1,5-a]pyrimidine] yielded a melting point of 202 °C.

`FC(F)(F)c1ccc(-c2cc(C(F)(F)F)n3ncc(C#Cc4ccncc4)c3n2)cc1` [Example 7, 3-Pyridin-4-ylethynyl-7-trifluoromethyl-5-(4-trifluoromethyl-phenyl)-pyrazolo[1,5-a]pyrimidine]: the melting point lay within 252 to 256 °C.

Consider `NS(=O)(=O)c1ccc(C#Cc2cnn3c(C(F)(F)F)cc(-c4ccc(C(F)(F)F)cc4)nc23)cc1` [Example 36, 4-[7-Trifluoromethyl-5-(4-trifluoromethyl-phenyl)-pyrazolo[1,5-a]pyrimidin-3-ylethynyl]-benzenesulfonamide], for which the melting point lay within 266 to 267 °C.

With `Nc1ccc(C#Cc2cnc3ccc(-c4ccc(C(F)(F)F)cc4)cn23)cn1` [Example 237, 5-[6-(4-Trifluoromethyl-phenyl)-imidazo[1,2-a]pyridin-3-ylethynyl]-pyridin-2-ylamine], the melting point lay within 241 to 244 °C.

With `O=S(=O)(c1ccc(C#Cc2cnn3c(C(F)(F)F)cc(-c4ccc(C(F)(F)F)cc4)nc23)cc1)N1CCOCC1` [Example 122, 3-[4-(Morpholine-4-sulfonyl)-phenylethynyl]-7-trifluoromethyl-5-(4-trifluoromethyl-phenyl)-pyrazolo[1,5-a]pyrimidine], the melting point fell in the range of 229 to 231 °C.

In turn, `CC(C)(CO)NS(=O)(=O)c1ccc(C#Cc2cnn3c(C(F)(F)F)cc(-c4ccc(C(F)(F)F)cc4)nc23)s1` [Example 120, 5-[7-Trifluoromethyl-5-(4-trifluoromethyl-phenyl)-pyrazolo[1,5-a]pyrimidin-3-ylethynyl]-thiophene-2-sulfonic acid (2-hydroxy-1,1-dimethyl-ethyl)-amide] had a melting point of 272 °C.
